According to US9573901B2, “Crystal form of chidamide, preparation method and use thereof” (SHENZHEN CHIPSCREEN BIOSCIENCES, LTD., priority 2012, dated 2017):

How the values were obtained:
[1] = Stability test at high temperature, high humidity and strong light exposure; type: physicochemical; settings: high temperature (60° C.), high humidity (90%±5%) and strong light exposure (4500 Lx±500 Lx)
Protocol: The stability of the chidamide crystal form A and the chidamide crystal form B described herein was tested at high temperature (60° C.), high humidity (90%±5%) and strong light exposure (4500 Lx±500 Lx). […] Both the chidamide crystal form A and the chidamide crystal form B are suitable for the manufacturing of drug products and long-term storage. The chidamide crystal form A and the chidamide crystal form B described herein have excellent performance in terms of oral absorption and inhibition of cell differentiation and proliferation. Additionally, both crystal forms have low toxicity and favorable storage and treatment stability, and can be used in the preparation of a medicament for treating cell differentiation and proliferation-related diseases. Thus, the present invention provides the use of the chidamide crystal form A and the chidamide crystal form B in the preparation of a medicament for treating cell differentiation and proliferation-related diseases.

Solubility = type: physicochemical

- content and total impurity amount after stability test [1]: no significant change
- crystal form after stability test [1]: keep the original crystal form
SMILES: Nc1cc(F)ccc1NC(=O)c1ccc(CNC(=O)/C=C/c2cccnc2)cc1 [chidamide crystal form A, N-(2-amino-4-fluorophenyl)-4-(N-(3-pyridylacryloyl)aminomethyl)benzamide]
- solubility (Solubility): favorable performance in terms of solubility
